Counter-ions that a name gives are not always drawn.
What follows are compounds tested against T1, human 5-HT4(a) (Homo sapiens, UniProt Q13639) (assay: Evaluation of agonistic activity in CHO-K1 cells expressing human 5-HT4(a) (GeneBIAzer HTR4-CRE-bla CHO-K1 cells, beta-lactamase fluorescence ratio, EC50 from 8 concentrations)).
T1 construct: host or cells: GeneBIAzer HTR4-CRE-bla CHO-K1 cells
Assay type: cell-based
Outline: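 HTR4-CRE-bla CHO-K1 cells (10^4 per well, overnight in 1% FBS medium) exposed to compound for 5 h, then beta-lactamase substrate 2 h in the dark. Fluorescence ratio at 465/535 nm after 410 nm excitation; EC50 by non-linear regression over 8 concentrations.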

T1 sequence (Q13639 1-387 isoform Q13639-2): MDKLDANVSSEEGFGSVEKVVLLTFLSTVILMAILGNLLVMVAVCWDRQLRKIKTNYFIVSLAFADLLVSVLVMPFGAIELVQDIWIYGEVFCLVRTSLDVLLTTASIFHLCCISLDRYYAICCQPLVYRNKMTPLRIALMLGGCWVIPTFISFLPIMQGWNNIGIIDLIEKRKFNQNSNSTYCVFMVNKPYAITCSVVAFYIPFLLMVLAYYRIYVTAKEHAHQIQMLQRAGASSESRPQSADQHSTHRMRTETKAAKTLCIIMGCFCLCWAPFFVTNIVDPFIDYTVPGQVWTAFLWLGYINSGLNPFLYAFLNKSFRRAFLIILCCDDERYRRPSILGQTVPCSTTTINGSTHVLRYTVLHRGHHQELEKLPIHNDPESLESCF

Structure (SMILES)	EC50 [nM]
CCCc1cc(N2CCNC[C@H]2C)nc(Nc2cc(N)cc(C#N)c2)n1 [Example 129, (R)-3-amino-5-[4-(2-methylpiperazin-1-yl)-6-propylpyrimidin-2-ylamino]benzonitrile]	0.0041
CCCc1cc(N2CCC[C@@H](NC(=O)CO)C2)nc(Nc2ccc(C)c(C(F)(F)F)c2)n1 [Example 254, (R)-2-hydroxy-N-(1-{2-[4-methyl-3-(trifluoromethyl)phenylamino]-6-propylpyrimidin-4-yl}piperidin-3-yl)acetamide]	0.038
CCCCc1cc(N2CCC[C@@H](NC(C)=O)C2)nc(Nc2ccc(N)c([N+](=O)[O-])c2)n1 [Example 232, (R)—N-{1-[2-(4-amino-3-nitrophenylamino)-6-butylpyrimidin-4-yl]piperidin-3-yl}acetamide]	0.0037
CCCCc1cc(N2CCC[C@@H](NC)C2)nc(Nc2ccc(C)c(C(F)(F)F)c2)n1 [Example 332, (R)-4-butyl-N-[4-methyl-3-(trifluoromethyl)phenyl]-6-[3-(methylamino)piperidin-1-yl]pyrimidin-2-amine]	0.017
CCCCc1cc(N2CCC[C@@H](N)C2)nc(Nc2ccc(F)c([N+](=O)[O-])c2)n1 [Example 338, (R)-4-(3-aminopiperidin-1-yl)-6-butyl-N-(4-fluoro-3-nitrophenyl)pyrimidin-2-amine]	0.014
CCCc1cc(N2CCC[C@@H](N)C2)nc(Nc2ccc(N)c(C#N)c2)n1 [Example 261, (R)-2-amino-5-{[4-(3-aminopiperidin-1-yl)-6-propylpyrimidin-2-yl]amino}benzonitrile]	0.105
CCCc1cc(N2CCC[C@@H](NCC)C2)nc(Nc2cc(N)cc(C(F)(F)F)c2)n1 [Example 290, (R)—N^1-[4-(3-ethylaminopiperidin-1-yl)-6-propylpyrimidin-2-yl]-5-(trifluoromethyl)benzene-1,3-diamine]	0.0041
CCCc1cc(N2CCC[C@H](N)C2)nc(Nc2ccc(C)c(C#N)c2)n1 [Example 150, (S)-5-[4-(3-aminopiperidin-1-yl)-6-propylpyrimidin-2-ylamino]-2-methylbenzonitrile dihydrochloride]	0.07
CCCc1cc(N2CCC[C@@H](NCC3CC3)C2)nc(Nc2ccc(C)c(C#N)c2)n1 [Example 217, (R)-5-{4-[3-(cyclopropylmethylamino)piperidin-1-yl]-6-propylpyrimidin-2-ylamino}-2-methylbenzonitrile]	0.013
CCCCN[C@H]1CCCN(c2cc(CCC)nc(Nc3ccc(C)c(C#N)c3)n2)C1 [Example 154, (S)-5-{4-[3-(butylamino)piperidin-1-yl]-6-propylpyrimidin-2-ylamino}-2-methylbenzonitrile]	0.041
CCCc1cc(N2CCNC[C@H]2C)nc(Nc2ccc(C)c(C#N)c2)n1 [Example 126, (R)-2-methyl-5-[4-(2-methylpiperazin-1-yl)-6-propylpyrimidin-2-ylamino]benzonitrile]	0.013
CCCc1cc(N2CCNC[C@H]2C)nc(Nc2cccc(C(F)(F)F)c2)n1 [Example 119]	0.156
CCCc1cc(N2CCC[C@@H](NC(C)=O)C2)nc(Nc2cc(N)cc(C(F)(F)F)c2)n1 [Example 278, (R)—N-(1-{2-[3-amino-5-(trifluoromethyl)phenylamino]-6-propylpyrimidin-4-yl}piperidin-3-yl)acetamide]	0.01
CCCc1cc(N2CCCC3CCCCC32)nc(Nc2cccc(OC)c2)n1 (centres unmarked) [Example 191, N-(3-methoxyphenyl)-4-(octahydroquinolin-1(2H)-yl)-6-propylpyrimidin-2-amine]	0.34
CCCc1cc(N2CCC[C@H](N(CC)CC)C2)nc(Nc2ccc(C)c(C#N)c2)n1 [Example 165, (S)-5-[4-(3-diethylaminopiperidin-1-yl)-6-propylpyrimidin-2-ylamino]-2-methylbenzonitrile]	0.188
CCCc1cc(N2CCC[C@@H](N(CC)CC)C2)nc(Nc2ccc(F)c(C#N)c2)n1 [Example 270, (R)-5-[4-(3-diethylaminopiperidin-1-yl)-6-propylpyrimidin-2-ylamino]-2-fluorobenzonitrile]	0.148
CCCc1cc(N2CCCCC2CCO)nc(Nc2ccc(F)c(N)c2)n1 (centres unmarked) [Example 181, 2-{1-[2-(3-amino-4-fluorophenylamino)-6-propylpyrimidin-4-yl]piperidin-2-yl}ethanol]	0.025
CCCc1cc(N2CCC[C@@H](N)C2)nc(Nc2ccc(F)c(C#N)c2)n1 [Example 222, (R)-5-[4-(3-aminopiperidin-1-yl)-6-propylpyrimidin-2-ylamino]-2-fluorobenzonitrile dihydrochloride]	0.056
CCCc1cc(N2CCCCC2CC)nc(Nc2ccc3cc[nH]c3c2)n1 (centres unmarked) [Example 78, N-[4-(2-ethylpiperidin-1-yl)-6-propylpyrimidin-2-yl]-1H-indol-6-amine]	0.12
CCCc1cc(N2CCNC[C@H]2C)nc(Nc2cccc(C#N)c2)n1 [Example 82, (R)-3-[4-(2-methylpiperazin-1-yl)-6-propylpyrimidin-2-ylamino]benzonitrile dihydrochloride]	0.096
CCCc1cc(N2CCNC[C@H]2C)nc(Nc2ccc(Cl)c([N+](=O)[O-])c2)n1 [Example 117, (R)-N-(4-chloro-3-nitrophenyl)-4-(2-methylpiperazin-1-yl)-6-propylpyrimidin-2-amine]	0.077
CCCc1cc(N2CCOCC2)nc(Nc2cccc([N+](=O)[O-])c2)n1 [Example 83, 4-morpholino-N-(3-nitrophenyl)-6-propylpyrimidin-2-amine hydrochloride]	0.36
CCCc1cc(N2CCC[C@@H](NC(=O)CO)C2)nc(Nc2cc(N)cc(C#N)c2)n1 [Example 255, (R)—N-{1-[2-(3-amino-5-cyanophenylamino)-6-propylpyrimidin-4-yl]piperidin-3-yl}-2-hydroxyacetamide]	0.016
CCCc1cc(N2CCC[C@@H](NC)C2)nc(Nc2ccc(N)c([N+](=O)[O-])c2)n1 [Example 321, (R)—N^1-{4-[3-(methylamino)piperidin-1-yl]-6-propylpyrimidin-2-yl}-3-nitrobenzene-1,4-diamine dihydrochloride]	0.0031
CCCN[C@@H]1CCCN(c2cc(CCC)nc(Nc3cccc(C#N)c3)n2)C1 [Example 223, (R)-3-{4-[3-(propylamino)piperidin-1-yl]-6-propylpyrimidin-2-ylamino}benzonitrile]	0.045

More lines, in order of falling EC50, values ahead:

EC50 [nM]	Structure (SMILES)
0.391	CCCCc1cc(N2CCC[C@@H](N)C2)nc(Nc2ccc(C)c(C)c2)n1 [Example 347, (R)-4-(3-aminopiperidin-1-yl)-6-butyl-N-(3,4-dimethylphenyl)pyrimidin-2-amine]
0.32	CCCc1cc(N2CCCC3CCCCC32)nc(Nc2ccc(F)c([N+](=O)[O-])c2)n1 (centres unmarked) [Example 189, N-(4-fluoro-3-nitrophenyl)-4-(octahydroquinolin-1(2H)-yl)-6-propylpyrimidin-2-amine]
0.122	CCCc1cc(N2CCC[C@@H](N)C2)nc(Nc2cccc(C#N)c2)n1 [Example 221, (R)-3-[4-(3-aminopiperidin-1-yl)-6-propylpyrimidin-2-ylamino]benzonitrile dihydrochloride]
0.094	CCCc1cc(N2CCC[C@@H](NC(=O)CO)C2)nc(Nc2ccc(C)c(N)c2)n1 [Example 252, (R)—N-{1-[2-(3-amino-4-methylphenylamino)-6-propylpyrimidin-4-yl]piperidin-3-yl}-2-hydroxyacetamide]
0.066	CCCc1cc(N2CCC[C@H](NCC(C)C)C2)nc(Nc2ccc(C)c(C#N)c2)n1 [Example 156, (S)-5-{4-[3-(isobutylamino)piperidin-1-yl]-6-propylpyrimidin-2-ylamino}-2-methylbenzonitrile]
0.064	CCCc1cc(N2CCC[C@@H](NCc3cc(C)c(C)o3)C2)nc(Nc2ccc(C)c(C#N)c2)n1 [Example 215, (R)-5-(4-{3-[(4,5-dimethylfuran-2-ylmethyl)amino]piperidin-1-yl}-6-propylpyrimidin-2-ylamino)-2-methylbenzonitrile]
0.049	CCCc1cc(N2CCC[C@@H](N)C2)nc(Nc2ccc(C)c([N+](=O)[O-])c2)n1 [Example 265, (R)-4-(3-aminopiperidin-1-yl)-N-(4-methyl-3-nitrophenyl)-6-propylpyrimidin-2-amine]
0.027	CCCc1cc(N2CCC[C@@H](NC(=O)CO)C2)nc(Nc2ccc(F)c(N)c2)n1 [Example 250, (R)—N-{1-[2-(3-amino-4-fluorophenylamino)-6-propylpyrimidin-4-yl]piperidin-3-yl}-2-hydroxyacetamide]
0.012	CCCc1cc(N2CCC[C@@H](N)C2)nc(Nc2cc(N)cc(C(F)(F)F)c2)n1 [Example 256, (R)—N^1-[4-(3-aminopiperidin-1-yl)-6-propylpyrimidin-2-yl]-5-(trifluoromethyl)benzene-1,3-diamine]
0.011	CCCc1cc(N2CCC[C@@H](NC)C2)nc(Nc2ccc(C)c(OC)c2)n1 [Example 309, (R)—N-(3-methoxy-4-methylphenyl)-4-[3-(methylamino)piperidin-1-yl]-6-propylpyrimidin-2-amine]
0.009	CCCCc1cc(N2CCC[C@@H](NC(C)=O)C2)nc(Nc2ccc(C)c([N+](=O)[O-])c2)n1 [Example 233, (R)—N-{1-[6-butyl-2-(4-methyl-3-nitrophenylamino)pyrimidin-4-yl]piperidin-3-yl}acetamide]
0.005	CCCCc1cc(N2CCC[C@@H](NC)C2)nc(Nc2cc(N)cc(C(F)(F)F)c2)n1 [Example 313, (R)—N^1-{4-butyl-6-[3-(methylamino)piperidin-1-yl]pyrimidin-2-yl}-5-(trifluoromethyl)benzene-1,3-diamine]
0.0046	CCCc1cc(N2CCC[C@@H](NCC3CC3)C2)nc(Nc2ccc(N)c(C(F)(F)F)c2)n1 [Example 230, (R)—N^1-{4-[3-(cyclopropylmethylamino)piperidin-1-yl]-6-propylpyrimidin-2-yl}-3-(trifluoromethyl)benzene-1,4-diamine]

From patent publication US9850227B2 (YUHAN CORPORATION, priority 2011, dated 2017)
